Data: publication PMC4705544, “CPUY201112, a novel synthetic small-molecule compound and inhibitor of heat shock protein Hsp90, induces p53-mediated apoptosis in MCF-7 cells” (Scientific Reports, 2016)

Target: T1, Hsp90α (Homo sapiens, UniProt P07900)
T1 construct: gene HSP90AA1; full-length Hsp90
Experiment: BLI (ForteBio Octet Red […]); also FP competition with FITC-geldanamycin (IC50 […]) and HTRF ATPase inhibition
Assay type: binding

Kd: 27 ± 5 nM
Compound: CCOc1ncc2c(n1)CCN(C(=O)c1cc(C(C)C)c(O)cc1O)C2 [CPUY201112]
